“And” between values parts separate entries of the source, which are not always exact repeats. Equal entries are not always repeated. Inconclusive results and toxic doses are left out. Rule as the data show it: active = T/C of 150% or more; inactive = T/C below 125%.
System: L1210 leukemia ip in BDF1 mice, survival T/C
Assay: NCI In Vivo Anticancer Drug Screen. Data for tumor model L1210 Leukemia (intraperitoneal) in B6D2F1 (BDF1) mice
Details: endpoint: mean survival time, higher = longer survival
Summary of the method: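 In this screen, tumor-bearing mice given compound are compared to those given vehicle, and their survival values are reported as a treated-to-control quotient.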

[1] = dose: 100.0 mg/kg/injection, schedule: Q04DX003 (ip), vehicle: saline with Tween-80
[2] = dose: 200.0 mg/kg/injection, schedule: Q04DX003 (ip), vehicle: saline with Tween-80
[3] = dose: 400.0 mg/kg/injection, schedule: Q04DX003 (ip), vehicle: saline with Tween-80
[4] = dose: 400.0 mg/kg/injection, schedule: Q04DX002 (ip), vehicle: saline with Tween-80
[5] = dose: 100.0 mg/kg/injection, schedule: Q01DX009 (ip), vehicle: saline
[6] = dose: 100.0 mg/kg/injection, schedule: Q04DX003 (ip), vehicle: saline
[7] = dose: 200.0 mg/kg/injection, schedule: Q01DX009 (ip), vehicle: saline
[8] = dose: 200.0 mg/kg/injection, schedule: Q04DX003 (ip), vehicle: saline
[9] = dose: 100.0 mg/kg/injection, schedule: Q01DX001 (ip), vehicle: Klucel (hydroxypropylcellulose) (HPC)
[10] = dose: 100.0 mg/kg/injection, schedule: Q01DX009 (ip), vehicle: Klucel (hydroxypropylcellulose) (HPC)
[11] = dose: 100.0 mg/kg/injection, schedule: Q04DX003 (ip), vehicle: Klucel (hydroxypropylcellulose) (HPC)
[12] = dose: 200.0 mg/kg/injection, schedule: Q01DX001 (ip), vehicle: Klucel (hydroxypropylcellulose) (HPC)
[13] = dose: 200.0 mg/kg/injection, schedule: Q01DX009 (ip), vehicle: Klucel (hydroxypropylcellulose) (HPC)
[14] = dose: 200.0 mg/kg/injection, schedule: Q04DX003 (ip), vehicle: Klucel (hydroxypropylcellulose) (HPC)
[15] = dose: 400.0 mg/kg/injection, schedule: Q01DX001 (ip), vehicle: Klucel (hydroxypropylcellulose) (HPC)
[16] = dose: 400.0 mg/kg/injection, schedule: Q04DX003 (ip), vehicle: Klucel (hydroxypropylcellulose) (HPC)
[17] = dose: 100.0 mg/kg/injection, schedule: Q01DX001 (ip), vehicle: saline
[18] = dose: 200.0 mg/kg/injection, schedule: Q01DX001 (ip), vehicle: saline
[19] = dose: 50.0 mg/kg/injection, schedule: Q01DX001 (ip), vehicle: saline
[20] = dose: 400.0 mg/kg/injection, schedule: Q01DX001 (ip), vehicle: saline
[21] = dose: 50.0 mg/kg/injection, schedule: Q01DX009 (ip), vehicle: Klucel (hydroxypropylcellulose) (HPC)
[22] = dose: 50.0 mg/kg/injection, schedule: Q01DX009 (ip), vehicle: saline with Tween-80
[23] = dose: 100.0 mg/kg/injection, schedule: Q01DX009 (ip), vehicle: saline with Tween-80
[24] = dose: 200.0 mg/kg/injection, schedule: Q01DX009 (ip), vehicle: saline with Tween-80
[25] = dose: 400.0 mg/kg/injection, schedule: Q04DX003 (ip), vehicle: saline
[26] = dose: 400.0 mg/kg/injection, schedule: Q01DX009 (ip), vehicle: saline
[27] = dose: 400.0 mg/kg/injection, schedule: Q01DX009 (ip), vehicle: Klucel (hydroxypropylcellulose) (HPC)

Measured: T/C

CCOC(=O)CCC1(C(=O)OC)C(=O)CCCCCCC1C(=O)OC (stereo not drawn)
inactive: [1] 103 % of control | [2] 99 % of control | [3] 96 % of control

O=C(O)CCc1ccccc1-c1ccccc1
inactive: dose: 50.0 mg/kg/injection, schedule: Q04DX002 (ip), vehicle: saline with Tween-80 96 % of control | dose: 100.0 mg/kg/injection, schedule: Q04DX002 (ip), vehicle: saline with Tween-80 101 % of control | dose: 200.0 mg/kg/injection, schedule: Q04DX002 (ip), vehicle: saline with Tween-80 96 % of control | [4] 107 % of control

Nc1ccn(C2OC(COP(=O)(O)Oc3ccccc3)C(O)C2O)c(=O)n1 (stereo not drawn)
inactive: dose: 75.0 mg/kg/injection, schedule: Q01DX001 (ip), vehicle: saline 109 % of control | dose: 150.0 mg/kg/injection, schedule: Q01DX001 (ip), vehicle: saline 113 % of control

NN1N=Nc2cccc3cccc1c23
inactive: dose: 50.0 mg/kg/injection, schedule: Q01DX009 (ip), vehicle: saline 96 % of control | [5] 107 % of control | [6] 92 % of control | [7] 88 % of control | [8] 91 % of control

CC(=O)NC1CCC(CC(=O)O)CC1 (stereo not drawn)
inactive: [9] 94 % of control and 96 % of control | [10] 98 % of control | [11] 92 % of control | [12] 94 % of control and 102 % of control | [13] 87 % of control | [14] 99 % of control | [15] 91 % of control and 94 % of control | [16] 95 % of control

CC(CC(=O)c1ccc(F)cc1)N1CCOCC1 (stereo not drawn)
inactive: [17] 92 % of control | [18] 90 % of control

CCN(Cc1ccccc1)c1cc(=O)[nH]c(=O)[nH]1
inactive: dose: 48.0 mg/kg/injection, schedule: Q01DX001 (ip), vehicle: Klucel (hydroxypropylcellulose) (HPC) 100 % of control | dose: 96.0 mg/kg/injection, schedule: Q01DX001 (ip), vehicle: Klucel (hydroxypropylcellulose) (HPC) 102 % of control | dose: 192.0 mg/kg/injection, schedule: Q01DX001 (ip), vehicle: Klucel (hydroxypropylcellulose) (HPC) 97 % of control

NC(CC(=O)N/C=N\O)C(=O)O (stereo not drawn)
inactive: [19] 98 % of control | [17] 102 % of control | [18] 104 % of control | [20] 104 % of control

O=C(O)c1cc(Cl)ccn1
inactive: dose: 25.0 mg/kg/injection, schedule: Q01DX009 (ip), vehicle: Klucel (hydroxypropylcellulose) (HPC) 98 % of control | [21] 102 % of control | [10] 101 % of control and 107 % of control

O=C1CC(c2ccccc2)(c2ccccc2)c2cc(-c3ccccc3)c(-c3ccccc3)cc21
inactive: dose: 100.0 mg/kg/injection, schedule: Q04DX002 (ip), vehicle: Klucel (hydroxypropylcellulose) (HPC) 106 % of control | dose: 200.0 mg/kg/injection, schedule: Q04DX002 (ip), vehicle: Klucel (hydroxypropylcellulose) (HPC) 103 % of control | dose: 400.0 mg/kg/injection, schedule: Q04DX002 (ip), vehicle: Klucel (hydroxypropylcellulose) (HPC) 95 % of control

c1ccc2c(c1)Sc1ccccc1S2
inactive: dose: 50.0 mg/kg/injection, schedule: Q01DX001 (ip), vehicle: carboxymethylcellulose (CMC) 106 % of control | dose: 100.0 mg/kg/injection, schedule: Q01DX001 (ip), vehicle: carboxymethylcellulose (CMC) 112 % of control | dose: 200.0 mg/kg/injection, schedule: Q01DX001 (ip), vehicle: carboxymethylcellulose (CMC) 101 % of control | dose: 400.0 mg/kg/injection, schedule: Q01DX001 (ip), vehicle: carboxymethylcellulose (CMC) 104 % of control

CC(C)(C)C1=CC(=O)C(C(C)(C)C)=CC1=O
inactive: [22] 104 % of control | [23] 98 % of control | [24] 95 % of control

Nc1nc([Se])c2cc[nH]c2n1
inactive: dose: 12.5 mg/kg/injection, schedule: Q01DX009 (ip), vehicle: water 107 % of control | dose: 25.0 mg/kg/injection, schedule: Q01DX009 (ip), vehicle: water 102 % of control | dose: 25.0 mg/kg/injection, schedule: Q04DX003 (ip), vehicle: water 97 % of control | dose: 50.0 mg/kg/injection, schedule: Q01DX009 (ip), vehicle: water 104 % of control | dose: 50.0 mg/kg/injection, schedule: Q04DX003 (ip), vehicle: water 102 % of control | dose: 100.0 mg/kg/injection, schedule: Q04DX003 (ip), vehicle: water 94 % of control and 95 % of control

O=C1CCCCCCCC1O (stereo not drawn)
inactive: [19] 96 % of control | [17] 98 % of control | [18] 102 % of control | [20] 104 % of control

CCOc1ccn(CC(=O)N2CCC3(CC2)SSC2(CCN(C(=O)Cn4ccc(OCC)nc4=O)CC2)S3)c(=O)n1
inactive: [6] 90 % of control | [8] 92 % of control | [25] 95 % of control

CCOC(=O)C(C)P(=O)(OCC)OCC (stereo not drawn)
inactive: [5] 112 % of control | [7] 104 % of control | [26] 109 % of control

[Si]c1ccc(-c2ccccc2)cc1
inactive: dose: 25.6 mg/kg/injection, schedule: Q04DX002 (ip), vehicle: saline with Tween-80 101 % of control | dose: 64.0 mg/kg/injection, schedule: Q04DX002 (ip), vehicle: saline with Tween-80 97 % of control | [1] 87 % of control | dose: 160.0 mg/kg/injection, schedule: Q04DX002 (ip), vehicle: saline with Tween-80 87 % of control | [4] 90 % of control

CCCC(=O)N1CCCC1
inactive: dose: 100.0 mg/kg/injection, schedule: Q04DX002 (ip), vehicle: saline 107 % of control | dose: 200.0 mg/kg/injection, schedule: Q04DX002 (ip), vehicle: saline 103 % of control | dose: 400.0 mg/kg/injection, schedule: Q04DX002 (ip), vehicle: saline 111 % of control

O=C(/C=C/C=C/c1ccccc1)c1ccccc1O
inactive: [22] 91 % of control | [23] 87 % of control and 89 % of control | [1] 94 % of control | [24] 94 % of control | [2] 91 % of control | dose: 400.0 mg/kg/injection, schedule: Q01DX009 (ip), vehicle: saline with Tween-80 89 % of control | [3] 93 % of control

CN(C)Cc1cccc(C(F)(F)F)c1C(O)c1ccccc1 (stereo not drawn)
inactive: [19] 100 % of control | [17] 94 % of control | [18] 103 % of control | [20] 100 % of control

O=C(O)c1cc2ccccc2s1
inactive: [21] 98 % of control | [10] 101 % of control | [11] 102 % of control | [13] 95 % of control | [14] 94 % of control

c1ccc2c(CCc3ccncc3)cccc2c1
inactive: [10] 103 % of control | [11] 101 % of control | [13] 100 % of control | [14] 103 % of control | [27] 97 % of control | [16] 100 % of control

CC1=NC(=NC(=O)c2ccccc2)N=C1
inactive: [1] 97 % of control | [2] 96 % of control | [3] 96 % of control

CC[N+]1(CC)CCOC(=O)C1
inactive: [5] 95 % of control | [6] 109 % of control | [7] 93 % of control | [8] 101 % of control | [26] 94 % of control | [25] 101 % of control

CCCCCC(=O)/C=C/c1ccc(C)cc1
inactive: [6] 102 % of control | [8] 100 % of control | [25] 112 % of control

O=C1c2ccccc2C(=O)N1c1cc([N+](=O)[O-])cc([N+](=O)[O-])c1O
inactive: [9] 98 % of control | [12] 95 % of control | [15] 88 % of control

CN1C(=O)C(c2ccccc2)(c2ccccc2)C(Br)=C1c1ccccc1
inactive: [19] 107 % of control | [17] 91 % of control | [18] 96 % of control | [20] 102 % of control

COc1cccc(Cc2c[nH]c(=S)[nH]c2=O)c1
inactive: [10] 108 % of control | [13] 96 % of control

O=C(/C=C/c1ccc2c(c1)OCO2)c1ccccc1
inactive: [21] 97 % of control | [10] 103 % of control | [11] 102 % of control | [13] 106 % of control | [14] 93 % of control | [27] 103 % of control | [16] 98 % of control
